{"source": "patent US20090004683A1", "about": "“Indicator Agent for Noninflammatory Stress Response and Use Thereof” (priority 2004, published 2009)", "key": {"[1]": {"test_system": "IL-18", "test": "Plasma IL-18 level in restraint stress mice (ELISA)", "type": "in vivo, mouse", "conditions": "given i.p. during restraint (Ac-YVAD-CHO 200 μM/50 μl, Z-FA-fmk 100 μM/50 μl, SB-203580 100 μg, SOD-1 20 U, DPI 30 μg)", "method": "(§1) For restraint stress, each mouse was kept in a restrainer (a round plastic tube 27 mm in diameter) for 1, 3 or 6 hours, and IL-18 levels were measured. Regarding the analysis of IL-6, each mouse was restrained as described above, and then housed in the starting cage for 6 hours, after which a measurement was performed.\n(§2) After restraint, each mouse was anesthetized with diethyl ether, and blood was drawn into an EDTA-containing tube. Plasma was separated by centrifugation at 4° C. and 10000×g for 10 minutes, and stored at −80° C. IL-18 and IL-6 were analyzed by ELISA using Quantikine™ immunoassay kit (R&D Systems) and OptEIA™ (BD-Pharmingen), respectively.\n(§3) The anti-ACTH antiserum (50 μl, 1:1), dexamethasone (1 ng/50 μl PBS(−)) or the anti-IL-18 antibody (50 μl, 1:1) was administered intraperitoneally to each mouse; after 10 minutes elapsed, the animal was kept in a restraint tube for 6 hours. Synthetic ACTH (250 μg/50 μl PBS(−)) was injected to the left leg; after 6 hours elapsed, the mice were subjected to the experiment.\n(§4) Each mouse was kept in a restrainer for 1 hour, and Ac-YVAD-CHO (200 μM/50 μl PBS(−)), Z-FA-fmk (100 μM/50 μl PBS(−)) and SB-203580 (100 μg/50 μl PBS(−) per mouse) were administered intraperitoneally. 1 and 3 hours after the start of restraint, SOD-1 (20 U) and DPI (30 μg) were administered intraperitoneally to the mouse, and samples were analyzed by Western blotting."}, "[2]": {"test_system": "IL-18 precursor", "test": "IL-18 (precursor) level in the adrenal of restraint stress mice", "type": "in vivo, mouse", "conditions": "given i.p. during restraint", "method": "as §1, §3, §4\nWestern blot analysis of IL-18 and phosphorylated P38MAP kinase in adrenal tissue was performed as described below. […] Procaspase-11 and activated P38 MAP kinase were quantified using a Science Lab 99 image analysis system (manufactured by Fujifilm)."}, "[3]": {"biological_target": "T1, caspase-1 (Mus musculus, UniProt P29452)", "T1 construct": "from tissue; host or cells: mouse adrenal (homogenate)", "T1 sequence (P29452 119-296 limits assumed)": "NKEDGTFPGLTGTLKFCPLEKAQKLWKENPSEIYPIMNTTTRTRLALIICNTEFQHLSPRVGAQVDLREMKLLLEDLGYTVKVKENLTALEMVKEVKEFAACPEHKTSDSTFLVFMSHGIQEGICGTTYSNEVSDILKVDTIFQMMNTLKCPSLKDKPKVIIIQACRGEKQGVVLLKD", "T1 sequence (P29452 315-402 limits assumed)": "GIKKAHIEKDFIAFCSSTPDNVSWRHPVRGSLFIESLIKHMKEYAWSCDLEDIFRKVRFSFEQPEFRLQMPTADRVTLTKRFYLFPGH", "test": "Caspase-1 activity in the adrenal of restraint stress mice (Ac-YVAD-MCA fluorescent substrate)", "type": "in vivo", "conditions": "given i.p. during restraint", "method": "as §4\nCaspase-1 activity in the adrenal was measured using a caspase assay kit (manufactured by BD-Pharmingen). Describing briefly, a homogenate of adrenal tissue was incubated with Ac-YVAD-MCA (acetyl-L-tyrosyl-L-valyl-L-alanyl-L-aspartic acid 4-methyl-coumaryl-7-amide), which is a fluorescent substrate for caspase-1, and the MCA leaving from the aforementioned substrate was measured using a fluorescence plate reader (excitation wavelength 380 nm, irradiation wavelength 420-460 nm)."}, "[4]": {"test_system": "IL-6", "test": "Plasma IL-6 level in stress-loaded wild type mice (ELISA)", "type": "in vivo, mouse", "conditions": "stress-loaded WT mice; FIG. 5B", "method": "as §1, §2\nUsing IL-18-deficient mice, the relationship between IL-6, which is another stress-related cytokine, and IL-18, was examined. Without stress, IL-6 was undetectable in WT and IL-18 KO, but after 3 hours of stress loading, the IL-6 level was 230 pg/ml in WT and 25 pg/ml in IL-18 KO (FIG. 5A). After liberation from the stress, plasma IL-6 was kept at about 80 pg/ml in WT, but decreased to 5 pg/ml in IL-18 KO (FIG. 5A). Treatment with YVAD-CHO, SOD and anti-IL-18 antibody 70% inhibited the stress-induced increase in plasma IL-6 level in WT (FIG. 5B)."}, "[5]": {"test_system": "Brain microglia", "test": "IL-18 release from microglia with paraquat stimulation", "type": "cell-based, mouse", "conditions": "microglia, 100 nM paraquat 1 hour; SOD 1-20 U/ml or water-soluble vitamin E 100 nM-10 mM/ml", "method": "Brain microglia isolated from the mouse neonatal brain by the method of Hassan et al. (Hassan N F, Rifat S, Campbell D E, McCawley L J, Douglas S D. J. Leukoc Biol. 1991 July; 50(1):86-92) were cultured at 1.5-2.0×10^6/ml. This was cultured in Dulbecco's minimum essential medium containing 100 nM of paraquat, which is an active oxygen generator, for 1 hour, after which the medium was exchanged with a paraquat-free medium. After further cultivation for 3 hours, the medium was collected, and the concentration of IL-18 protein in the medium was measured."}, "[6]": {"test_system": "Brain astrocytes", "test": "IL-18 release from astrocytes with paraquat stimulation", "type": "cell-based, mouse", "conditions": "astrocytes, 100 nM paraquat 1 hour; SOD 1-20 U/ml or water-soluble vitamin E 100 nM-10 mM/ml", "method": "Brain astrocytes isolated from the mouse neonatal brain by the method of Yang et al. (Yang P, Hernandez M R. Brain Res Brain Res Protoc. 2003 October; 12(2):67-76) were prepared at 1.5-2.0×10^6/ml. This was cultured in Dulbecco's minimum essential medium containing 100 nM of paraquat, which is an active oxygen generator, for 1 hour, after which the medium was exchanged with a paraquat-free medium. The cells were further cultured for 3 hours, after which the medium was collected, and the concentration of IL-18 protein in the medium was measured."}}, "data": [{"substance": "SOD: superoxide dismutase (SOD)-1 purchased from Sigma; active oxygen eliminator", "values": [{"measurement": "stress-induced increase in plasma IL-18 level", "setting": "[1]", "result": "reduced"}, {"measurement": "IL-18 precursor protein level in the adrenal", "setting": "[2]", "result": "did not reduce"}, {"measurement": "stress-induced increase in caspase-1 activity in the adrenal", "setting": "[3]", "result": "reduced"}, {"measurement": "inhibition of the stress-induced increase in plasma IL-6 level", "setting": "[4]", "result": 70, "unit": "%"}, {"measurement": "activation and release of IL-18 into the medium", "setting": "[5]", "result": "suppressed"}, {"measurement": "activation and release of IL-18 into the medium", "setting": "[6]", "result": "suppressed"}]}]}
